# Measurements: patent US10479793B2, “Imidazopyridazine compounds useful as modulators of IL-12, IL-23 and/or IFN alpha responses” (BRISTOL-MYERS SQUIBB COMPANY, priority 2015, dated 2019)
# pEC50, pIC50: −log10 of the molar value. Where two headings read alike, the source gives them in different places.
# What was measured:
# [1] = molecular target: T1, recombinantly expressed His-tagged protein corresponding to amino acids 575-869 of human Tyk2 (Homo sapiens, UniProt P29597); test: Probe displacement assay (scintillation proximity, tritiated probe); format: binding; settings: His-tagged Tyk2 (575-869) 2.5 nM, 40 nM radiolabeled probe, 30 minutes at room temperature
# T1 construct: made in house
# Description: The preparation of radiolabeled probe, (R)—N-(1-(3-(8-methyl-5-(methylamino)-8H-imidazo[4,5-d]thiazolo[5,4-b]pyridin-2-yl)phenyl)ethyl)-2-([^3H]methylsulfonyl)benzamide, was performed as described below: […]
# [2] = test system: IL-23 stimulated Kit225 T cells with a stably-integrated STAT-dependent luciferase reporter; test: Kit225 T cell assay, IL-23 stimulated STAT-dependent luciferase reporter; format: cell-based, human; settings: for pIC50: luciferase, read-out: IL-23 Kit225 Reporter, (IC50); for IC50: KIT225, read-out: IL-23 Kit225 Reporter, (IC50, uM)
# Description: (§1) Kit225 T cells with a stably-integrated STAT-dependent luciferase reporter were plated in RPMI (GIBCO) containing 10% heat-inactivated FBS (GIBCO) and 100 U/mL PenStrep (GIBCO). The cells were then stimulated with either 20 ng/mL human recombinant IL-23 or 200 U/mL human recombinant IFNα (PBL InterferonSource) for 5-6 hours. Luciferase expression was measured using the STEADY-GLO Luciferase Assay System (PROMEGA) according to the manufacturer's instructions.
# [3] = test system: IFNα stimulated Kit225 T cells with a stably-integrated STAT-dependent luciferase reporter; test: Kit225 T cell assay, IFNα stimulated STAT-dependent luciferase reporter; format: cell-based, human; settings: for pIC50: 5-6 hours, luciferase, read-out: IFNa Kit225 Reporter, (IC50); for IC50: KIT225, read-out: IFNa Kit225 Reporter, (IC50, uM)
# Description: as §1
# [4] = KIT225, 20 ng/mL human recombinant IL-23, 5-6 hours
# [5] = KIT225, 200 U/mL human recombinant IFNα
# [6] = Homo sapiens, KIT225, 20 ng/mL human recombinant IL-23, 5-6 hours
# [7] = Homo sapiens, KIT225, 200 U/mL human recombinant IFNα
# T1 sequence (P29597 with tags, fused parts or gaps): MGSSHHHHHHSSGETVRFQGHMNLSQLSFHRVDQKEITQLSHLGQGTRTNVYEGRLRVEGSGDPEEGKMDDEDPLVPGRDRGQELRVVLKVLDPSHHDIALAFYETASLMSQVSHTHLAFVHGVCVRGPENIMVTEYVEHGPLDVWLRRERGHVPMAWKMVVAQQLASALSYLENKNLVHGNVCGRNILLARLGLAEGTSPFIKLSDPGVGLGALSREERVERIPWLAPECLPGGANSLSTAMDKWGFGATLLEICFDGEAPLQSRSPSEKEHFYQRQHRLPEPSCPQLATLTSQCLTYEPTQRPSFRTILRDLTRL
SMILES,pEC50 [1],"pIC50 [2, 4]","pIC50 [3, 5]","pIC50 [2, 6]","pIC50 [3, 7]",IC50 ([2]; Homo sapiens) [µM],IC50 ([3]; Homo sapiens) [µM]
COCCNc1cc(Nc2cc(C)cc(C)c2)nn2c(C(N)=O)cnc12 [Example 56],7.15,5.67,5.75,–,–,–,–
Cc1cc(C)cc(Nc2cc(NCCN(C)C)c3ncc(C(N)=O)n3n2)c1 [Example 58],7.10,–,–,–,–,1.55,2.96
Cc1cc(F)cc(Nc2cc(NCC(F)(F)F)c3ncc(C(N)=O)n3n2)c1 [Example 59],6.80,5.02,4.90,–,–,–,–
Cc1cc(C)cc(Nc2cc(Nc3cncs3)c3ncc(C(N)=O)n3n2)c1 [Example 61],7.30,5.58,5.71,–,–,–,–
Cc1cc(C)cc(Nc2cc(Nc3cc(C)n(C)n3)c3ncc(C(N)=O)n3n2)c1 [Example 62],6.52,4.88,4.96,–,–,–,–
Cc1cc(C)cc(Nc2cc(Nc3cnccn3)c3ncc(C(N)=O)n3n2)c1 [Example 63],6.55,4.90,4.90,–,–,–,–
Cc1cc(C)cc(Nc2cc(Nc3cccnc3)c3ncc(C(N)=O)n3n2)c1 [Example 64],7.15,4.90,4.90,–,–,–,–
Cc1cc(C)cc(Nc2cc(N)c3ncc(C(N)=O)n3n2)c1 [Example 67],8.00,6.15,6.14,–,–,–,–
Cc1cc(C)cc(Nc2nc(NC3CC3)c3ncc(C(N)=O)n3n2)c1 [Example 70],7.10,4.95,4.90,–,–,–,–
Cc1cc(F)cc(Nc2nc(NC3CC3)c3ncc(C(N)=O)n3n2)c1 [Example 71],6.85,5.53,4.90,–,–,–,–
CNc1nc(Nc2ccccc2OC)nn2c(C(N)=O)cnc12 [Example 74],8.00,6.52,6.70,–,–,–,–
CNc1cc(N(C)c2ccccc2)nn2c(C(=O)NC3CC3)cnc12 [Example 76],7.30,–,–,5.45,5.55,–,–
CNc1cc(N2CCc3ccccc32)nn2c(C(=O)NC3CC3)cnc12 [Example 78],8.09,6.74,7.15,–,–,–,–
CNc1cc(Nc2cccc3c2OCCO3)nn2c(C(=O)NCC(C)(C)O)cnc12 [Example 82],8.00,6.74,7.05,–,–,–,–
CNc1cc(Nc2cccc(-n3cccn3)n2)nn2c(C(=O)NC3CC3)cnc12 [Example 85],8.03,7.40,7.52,–,–,–,–
CNc1cc(Nc2cccc(-c3ccccc3)n2)nn2c(C(=O)NC3CC3)cnc12 [Example 86],7.70,–,–,6.54,6.52,–,–
CNc1cc(Nc2cccc(N3CCCC3=O)n2)nn2c(C(=O)NC3CC3)cnc12 [Example 88],8.08,8.00,7.70,–,–,–,–
CNc1cc(Nc2cccc(-n3ccc(C(F)(F)F)n3)n2)nn2c(C(=O)NC3CC3)cnc12 [Example 89],8.00,6.41,6.36,–,–,–,–
CNc1cc(Nc2cccnc2-n2cccn2)nn2c(C(=O)NC3CC3)cnc12 [Example 92],7.52,–,–,6.40,6.68,–,–
CNc1cc(Nc2cncc(OC)c2)nn2c(C(=O)NC3CC3)cnc12 [Example 93],8.00,–,–,5.96,6.39,–,–
CNc1cc(Nc2cccnc2F)nn2c(C(=O)NC3CC3)cnc12 [Example 95],7.70,–,–,6.43,6.57,–,–
CNc1cc(Nc2cccnc2C)nn2c(C(=O)NC3CC3)cnc12 [Example 97],7.52,–,–,6.38,6.19,–,–
CNc1cc(Nc2cccnc2-n2nc(C)cc2C(F)(F)F)nn2c(C(=O)NC3CC3)cnc12 [Example 100],6.85,4.90,4.90,–,–,–,–
CNc1cc(Nc2cccnc2-n2ccc(C)n2)nn2c(C(=O)NC3CC3)cnc12 [Example 101],6.57,–,–,5.14,5.24,–,–
CCNC(=O)c1ncccc1Nc1cc(NC)c2ncc(C(=O)NC3CC3)n2n1 [Example 103],6.80,–,–,–,–,0.47,0.36
CNc1cc(Nc2cccc(-c3ccc(C(F)(F)F)cc3F)c2)nn2c(C(=O)NC3CC3)cnc12 [Example 116],7.18,5.96,5.92,–,–,–,–

# These reach a higher pEC50 [1]. Values come first.
pEC50 [1],"pIC50 [2, 4]","pIC50 [3, 5]","pIC50 [2, 6]","pIC50 [3, 7]",SMILES,IC50 ([2]; Homo sapiens) [µM],IC50 ([3]; Homo sapiens) [µM]
8.65,–,–,6.02,6.07,Cc1cc(F)cc(Nc2ccc3ncc(C(=O)NC4CC4)n3n2)c1 [Example 68],–,–
8.26,6.38,6.82,–,–,CNc1nc(Nc2cc(C)cc(C)c2)nn2c(C(N)=O)cnc12 [Example 69],–,–
8.11,6.55,6.85,–,–,CNc1nc(Nc2cc(C)cc(F)c2)nn2c(C(N)=O)cnc12 [Example 73],–,–
8.68,–,–,7.00,7.30,CNc1cc(Nc2c(OC)ccc(F)c2F)nn2c(C(=O)NC3CC3)cnc12 [Example 75],–,–
8.40,–,–,7.52,8.00,CNc1cc(Nc2ccccc2OC)nn2c(C(=O)NC3CC3)cnc12 [Example 77],–,–
8.16,–,–,7.15,7.30,CNc1cc(Nc2cc(F)cc(F)c2OC)nn2c(C(=O)NC3CC3)cnc12 [Example 79],–,–
8.32,6.82,6.92,–,–,CNc1cc(Nc2ccccc2OC)nn2c(C(=O)NCC(C)(C)O)cnc12 [Example 80],–,–
8.14,6.57,6.64,–,–,CNc1cc(Nc2cc(F)cc(F)c2OC)nn2c(C(=O)NCC(C)(C)O)cnc12 [Example 81],–,–
8.24,6.77,7.22,–,–,CNc1cc(Nc2cc(F)cc(F)c2OC)nn2c(C(N)=O)cnc12 [Example 83],–,–
8.37,7.05,7.22,–,–,CNc1cc(Nc2cccc(N3CCOC3=O)n2)nn2c(C(=O)NC3CC3)cnc12 [Example 87],–,–
8.41,6.15,6.85,–,–,CNc1cc(Nc2cccc(N3CCC(O)C3=O)n2)nn2c(C(=O)NC3CC3)cnc12 (stereo not drawn) [Example 90],–,–
8.86,–,–,7.70,7.52,CNc1cc(Nc2cccnc2OC)nn2c(C(=O)NC3CC3)cnc12 [Example 94],–,–
8.14,–,–,6.29,6.22,CNc1cc(Nc2cncc(C)c2)nn2c(C(=O)NC3CC3)cnc12 [Example 96],–,–
8.12,6.80,6.92,–,–,O=C(NC1CC1)c1cnc2c(NCCN3CCOCC3)cc(Nc3cccc4c3OCCO4)nn12 [Example 110],–,–
